Experimental data taken from publication PMC7698210 (International Journal of Molecular Sciences, 2020).
Read-outs that look alike come from different tables or passages of the source.

Experiments:
Assay in all cases: cell-based
H1R [1] = target: T1, H1R (Homo sapiens, UniProt P35367); parameters: gene HRH1; full receptor, C-terminal NlucC tag (11 aa split-NanoLuc fragment); co-expressed with NlucN-mGsq (mini-Gs/q71) in HEK293T; species or system HEK293T; settings: HEK-293T, read-out: Mini G Protein Recruitment / Emax [%]
H2R [2] = target: T2, H2R (Homo sapiens, UniProt P25021); parameters: species or system HEK293T; settings: HEK-293T; read-out: Mini G Protein Recruitment / Emax [%]
T2 construct: gene HRH2; full receptor, C-terminal NlucC tag (11 aa split-NanoLuc fragment); co-expressed with NlucN-mGs (mini-Gs393) in HEK293T

H2R [3] = target: T2, H2R; parameters: species or system HEK293T; settings: HEK-293T; read-out: Mini G Protein Recruitment / Emax [%]; remark: listed apart in the source
H1R [4] = target: T1, H1R; parameters: gene HRH1; settings: HEK-293T, read-out: Mini G Protein Recruitment / Emax [%]

T2 sequence (P25021 whole entry, the tested form may be a part): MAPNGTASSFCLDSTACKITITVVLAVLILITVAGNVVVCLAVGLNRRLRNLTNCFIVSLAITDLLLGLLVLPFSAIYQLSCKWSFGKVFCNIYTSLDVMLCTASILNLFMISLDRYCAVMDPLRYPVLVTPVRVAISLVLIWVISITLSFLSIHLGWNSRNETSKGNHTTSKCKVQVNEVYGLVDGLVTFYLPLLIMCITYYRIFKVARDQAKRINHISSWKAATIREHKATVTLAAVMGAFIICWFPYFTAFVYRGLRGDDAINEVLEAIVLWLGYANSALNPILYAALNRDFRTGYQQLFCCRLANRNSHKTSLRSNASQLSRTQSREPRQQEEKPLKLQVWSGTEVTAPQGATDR
T1 sequence (P35367 whole entry, the tested form may be a part): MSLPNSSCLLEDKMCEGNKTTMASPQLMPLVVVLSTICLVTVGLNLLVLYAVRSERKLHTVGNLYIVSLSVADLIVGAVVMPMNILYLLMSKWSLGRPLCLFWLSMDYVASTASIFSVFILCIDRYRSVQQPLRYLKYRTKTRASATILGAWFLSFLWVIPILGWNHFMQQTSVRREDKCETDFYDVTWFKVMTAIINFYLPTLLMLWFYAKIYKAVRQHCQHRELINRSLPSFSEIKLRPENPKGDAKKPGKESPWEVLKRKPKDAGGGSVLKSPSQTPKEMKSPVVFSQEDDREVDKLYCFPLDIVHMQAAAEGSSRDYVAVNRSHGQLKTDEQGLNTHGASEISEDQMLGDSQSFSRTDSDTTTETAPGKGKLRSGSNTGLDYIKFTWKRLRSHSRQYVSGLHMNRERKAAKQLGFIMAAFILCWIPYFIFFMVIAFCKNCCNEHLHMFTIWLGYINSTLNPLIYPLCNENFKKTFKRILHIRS

| Structure (SMILES) | Emax (H1R [1]) [%] | Emax (H2R [3]) [%] | Emax (H2R [2]) [%] | also measured |
| --- | --- | --- | --- | --- |
| Cc1[nH]cnc1CCN [4mhis, 4-methylhistamine] | 44 ± 2.4 | – | 93 ± 2.2 | – |
| CNCCc1cnc[nH]1 [Namh, N^α-methylhistamine] | 99 ± 2 | – | 93 ± 1.7 | – |
| Cc1nc(N)sc1CCN [amt, amthamine] | – | – | 105 ± 2.8 | – |
| CN(C)CCCSC(=N)N [dim, dimaprit] | – | – | 94 ± 2.6 | – |
| NC(N)=Nc1nc(CSCCC(N)=NS(N)(=O)=O)cs1 [fam, famotidine] | – | -9 ± 0.7 | – | – |
| Cc1[nH]cnc1CSCCNC(=N)NCCCc1c[nH]cn1 [impro, impromidine] | – | – | 90 ± 1.5 | – |
| CNC(=C[N+](=O)[O-])NCCSCc1ccc(CN(C)C)o1 [ran, ranitidine] | – | -8 ± 0.7 | – | – |

Continued, in another order:

| Emax (H1R [1]) [%] | Emax (H2R [3]) [%] | Structure (SMILES) | Emax (H2R [2]) [%] | also measured |
| --- | --- | --- | --- | --- |
| 29 ± 1.4 | – | CCC(=O)NC(N)=NCCCc1cnc[nH]1 [PI294, UR-PI294] | 95 ± 1.1 | – |
| – | -8 ± 0.8 | CN=C(NC#N)NCCSCc1nc[nH]c1C [cim, cimetidine] | – | – |
| – | 100 | NCCc1c[nH]cn1 [his, histamine] | – | Emax (H1R [4]): 100% |
| 33 ± 2 | – | NCCc1c[nH]c(CCC(c2ccccc2)c2ccccc2)n1 [histapro, histaprodifen] | – | – |
| 49 ± 3.7 | – | c1ccc(C(CCc2nc(CCNCCc3c[nH]cn3)c[nH]2)c2ccccc2)cc1 [suprahis, suprahistaprodifen] | – | – |
